Marks after values point to notes of the source that are not given here.
Key:
[1] = tested on: TGF-β secretion by spleen and MLN cells; experiment: TGF-β secretion by spleen and MLN cells (ELISA); type: cell-based; conditions: colitis-induced BALB/c mice treated with GA; anti-CD3 stimulation
Method: FIGS. 6A-6B show the effect of GA treatment on TGF-β secretion by lymphocytes of TNBS-induced BALB/c mice. Cells of spleen or mesenteric lymph nodes (MLN) from normal mice, colitis-induced mice, and colitis-induced mice treated with GA were cultured either with GA (50 μg/ml) (FIG. 6A) or immobilized anti-CD3 (5 μg/ml) (FIG. 6B). After 72 hours, supernatants from six culture wells were pooled and TGF-β was measured by ELISA in duplicates. Results are expressed as TGF-β concentration (pg/ml±1 SD) and represent one of two similar experiments, using pooled cells from 3-5 mice in each group. # Indicates significant decrease in TGF-β in colitic mice in comparison to normal mice. * Indicates significant increase in TGF-β induced by GA treatment in comparison to untreated colitis induced mice.
Reactivity assays. Spleens and mesenteric lymph nodes (MLN) cells (0.5×10^6 cell/well) were cultured with either GA (50 μg/ml), colon extract (200 μg/ml), immobilized anti-CD3 (5 μg/ml), or PBS control, in a final volume of 250 μl/well (6 wells for each antigen). For proliferation assay, cells were cultured in RPMI 1640 with 10% FCS, pulsed with 1 μCi of [3H] thymidine after 48 h incubation, and harvested 12 h later. […]

[2] = tested on: TNBS-induced colitis; experiment: TNBS-induced colitis in (SJL/JxBALB/c)F1 mice, various GA treatment modes; type: in vivo; conditions: for Decrease in the total macroscopic score versus untreated mice: 5 days after disease induction; for Decrease in the total macroscopic damage versus untreated mice: fed with GA
Method: Induction of cholitis in mice. TNBS-colitis was induced by rectal instillation of 2,4,6-trinitrobenzene sulfonic acid 5% (w/v), mixed with an equal volume of ethanol, into anesthetized mice (100 μl/mouse). Each treatment group included 6-12 mice. Mice that died before day 4 were considered as treatment casualties and were not taken into consideration.
Assessment of colitis. Weight changes and survival were monitored daily. […]
Macroscopic colonic scoring. Gross colonic damage was graded according to Reuter et al. (1996), using the combined values of the four standard macroscopic parameters: degree of colonic ulcerations (scale from 0—completely normal, to 10—most severe); intestinal and peritoneal adhesions (0 to 2); diarrhea (0 to 1); and thickness (0 to 1). The total score is the arithmetic sum of the four scores. The evaluation was performed in a blind procedure.
Microscopic scoring. Proximal, medial, and distal portions of colon were fixed in 10% phosphate-buffered formalin. Paraffin-embedded sections were stained with hematoxylin and eosin. The degree of histological damage and inflammation was graded according to Elson et al. (1996) using the combined values of the four microscopic parameters: extent (scale from 0—completely normal, to 2—involving more than one segment); inflammation (0—none to 3—severe); damage (0 to 3—severe transmural); and regeneration (0—complete re-eptihelization to 3—none). The total score is the arithmetic sum of the four scores. The evaluation was performed in a blind procedure.
Oral treatment—250 μg/day in PBS, fed by gastric intubation with an 18-gauge stainless steel feeding needle. Unless otherwise stated, feedings were performed on days-7, -5, -3, -1, 0, 2, 4 and 6, relative to the day of TNBS instillation. […]
To explore whether the beneficial effect of GA on TNBS-induced colitis is restricted to oral administration in the BALB/c strain or represents a more general effect, we studied the ability of GA administered by different routes and dosages to inhibit TNBS-induced colitis in two additional strains of mice.

[3] = scoring 5 days after disease induction, GA injected daily (from day −7), 2.5 mg/mouse SC
[4] = scoring 5 days after disease induction, GA injected daily (from day −14), 2.5 mg/mouse SC
[5] = scoring 5 days after disease induction, GA injected once day −14, 5 mg/mouse SC in ICFA
[6] = scoring 5 days after disease induction, GA oral every other day (from day −7), 0.25 mg, 8 feedings
[7] = scoring 11 days after disease induction, GA injected daily (from day −7), 2.5 mg/mouse SC
[8] = scoring 11 days after disease induction, GA injected daily (from day −14), 2.5 mg/mouse SC
[9] = scoring 11 days after disease induction, GA injected once day −14, 5 mg/mouse SC in ICFA
[10] = scoring 11 days after disease induction, GA oral every other day (from day −7), 0.25 mg, 8 feedings

What does the source list for glatiramer acetate [GA]?
TGF-β secretion in the MLN relative to the secretion of normal mice [1]: 2.2 folds; Decrease in the total macroscopic score versus untreated mice ([2]; GA daily injections from day −7): 3.5 fold; Decrease in the total macroscopic score versus untreated mice ([2]; GA daily injections from day −14): 4.6 fold; Complete weight restoration ([2]; GA injected daily (from day −7)): ≤ 6 days; Weight loss (of original weight) ([2]; GA injected daily (from day −7), 1 day after induction): 4%; Mortality ([2]; daily injection of GA (starting both 7 and 14 days before disease induction)): completely prevented mortality; Reduction in the histological score ([2]; daily injections (starting either 7 or 14 days before disease induction)): 6.6 fold; Inhibition of weight loss caused by TNBS colitis ([2]; daily-injected mice): major significant inhibition of weight loss; Decrease in the total macroscopic damage versus untreated mice ([2]; observed 5 days after TNBS inoculation): 1.8 fold; Decrease in the total macroscopic damage versus untreated mice ([2]; observed 11 days after TNBS inoculation): 1.7 fold; Reduction in the histological score ([2]; oral treatment): 1.8 fold; Mortality rate ([2]; oral treatment with GA, by day 8): 30%; Inhibition of weight loss caused by TNBS colitis ([2]; orally-treated mice): modest, statistically insignificant, inhibition of weight loss; Macroscopic scoring of colon damage: Adhesion (max 2) [2, 3]: 0.8; Macroscopic scoring of colon damage: Diarrhea (max 1) [2, 3]: 0.4; Macroscopic scoring of colon damage: Thickness (max 1) [2, 3]: 0.1; Macroscopic scoring of colon damage: Total Score (max 14) [2, 3]: 2.7*; Macroscopic scoring of colon damage: Ulceration (max 10) [2, 3]: 1.4; Macroscopic scoring of colon damage: Adhesion (max 2) [2, 4]: 0.4; Macroscopic scoring of colon damage: Diarrhea (max 1) [2, 4]: 0.2; Macroscopic scoring of colon damage: Thickness (max 1) [2, 4]: 0.1; Macroscopic scoring of colon damage: Total Score (max 14) [2, 4]: 2.1*; Macroscopic scoring of colon damage: Ulceration (max 10) [2, 4]: 1.4; Macroscopic scoring of colon damage: Adhesion (max 2) [2, 5]: 1.4; Macroscopic scoring of colon damage: Diarrhea (max 1) [2, 5]: 0.3; Macroscopic scoring of colon damage: Thickness (max 1) [2, 5]: 0.3; Macroscopic scoring of colon damage: Total Score (max 14) [2, 5]: 6.4; Macroscopic scoring of colon damage: Ulceration (max 10) [2, 5]: 4.4; Macroscopic scoring of colon damage: Adhesion (max 2) [2, 6]: 1.0; Macroscopic scoring of colon damage: Diarrhea (max 1) [2, 6]: 0.3; Macroscopic scoring of colon damage: Thickness (max 1) [2, 6]: 0.3; Macroscopic scoring of colon damage: Total Score (max 14) [2, 6]: 5.4; Macroscopic scoring of colon damage: Ulceration (max 10) [2, 6]: 3.8; Macroscopic scoring of colon damage: Adhesion (max 2) [2, 7]: 0.0; Macroscopic scoring of colon damage: Diarrhea (max 1) [2, 7]: 0.0; Macroscopic scoring of colon damage: Thickness (max 1) [2, 7]: 0.0; Macroscopic scoring of colon damage: Ulceration (max 10) [2, 7]: 0.1; Macroscopic scoring of colon damage: Adhesion (max 2) [2, 8]: 0.0; Macroscopic scoring of colon damage: Diarrhea (max 1) [2, 8]: 0.0; Macroscopic scoring of colon damage: Thickness (max 1) [2, 8]: 0.0; Macroscopic scoring of colon damage: Ulceration (max 10) [2, 8]: 0.1; Macroscopic scoring of colon damage: Adhesion (max 2) [2, 9]: 1.0; Macroscopic scoring of colon damage: Diarrhea (max 1) [2, 9]: 0.2; Macroscopic scoring of colon damage: Thickness (max 1) [2, 9]: 0.2; Macroscopic scoring of colon damage: Total Score (max 14) [2, 9]: 3.7; Macroscopic scoring of colon damage: Ulceration (max 10) [2, 9]: 2.3; Macroscopic scoring of colon damage: Adhesion (max 2) [2, 10]: 0.6; Macroscopic scoring of colon damage: Diarrhea (max 1) [2, 10]: 0.1; Macroscopic scoring of colon damage: Thickness (max 1) [2, 10]: 0.2; Macroscopic scoring of colon damage: Total Score (max 14) [2, 10]: 3.2; Macroscopic scoring of colon damage: Ulceration (max 10) [2, 10]: 2.3; Effect on macroscopic scores versus untreated controls ([2]; single injection of GA as a depot dose in ICFA): small and statistically insignificant
